The record followed here is patent US6448261B1, “Arylamino fused pyridines” (Bristol-Myers Squibb Pharma Company, priority 1996, dated 2002).

By melting point is commonly meant the temperature of the solid-liquid transition.

The structures appear in SMILES notation.

In turn, `CCC(CC)n1nnc2c(Nc3c(Br)cc(OC)cc3OC)nc(C)cc21` [Example 222, N-(2-bromo-4,6-dimethoxyphenyl)-1-(1-ethylpropyl)-6-methyl-1H-1,2,3-triazolo[4,5-c]pyridin-4-amine] yielded a melting point of 166 to 167 °C.
`CCCn1nnc2c(Nc3ccc(C(C)C)cc3Br)nc(C)nc21` [Example 1, N-[2-bromo-4-(1-methylethyl)phenyl]-5-methyl-3-propyl-3H-1,2,3-triazolo[4,5-d]pyrimidin-7-amine] yielded a melting point of 80 to 81 °C.
The molecule `CCC(COC)n1nnc2c(Nc3ccc(C(C)=O)cc3Br)nc(C)nc21` (racemic) [Example 27, (+/−)-N-(4-acetyl-2-bromophenyl)-3-[1-(1-methoxymethyl)propyl]-5-methyl-3H-1,2,3-triazolo[4,5-d]pyrimidin-7-amine] displayed a melting point of 133 to 134 °C.
Molecule `CCCCC(CC)n1nnc2c(Nc3c(Br)cc(OC)cc3OC)nc(C)cc21` (racemic) [Example 227, (+/−)-N-(2-bromo-4,6-dimethoxyphenyl)-1-(1-ethylpentyl)-6-methyl-1H-1,2,3-triazolo[4,5-c]pyridin-4-amine] gave a melting point of 127 to 128 °C.
`COCCn1nnc2c(Nc3c(C)cc(C)cc3C)nc(C)nc21` [Example 38, 3-(2-methoxyethyl)-5-methyl-N-(2,4,6-trimethylphenyl)-3H-1,2,3-triazolo[4,5-d]pyrimidin-7-amine] came in with a melting point of 171.5 to 173.5 °C.
Consider `CCCCC(CC)n1nnc2c(Nc3c(Cl)cc(OC)cc3OC)nc(C)cc21` (racemic) [Example 228, (+/−)-N-(2-chloro-4,6-dimethoxyphenyl)-1-(1-ethylpentyl)-6-methyl-1H-1,2,3-triazolo[4,5-c]pyridin-4-amine], for which the melting point lay within 155 to 156 °C.
Take `CCC(COC)n1nnc2c(Nc3ccc(Br)cc3C)nc(C)nc21` (racemic) [Example 42, (+/−)-N-(4-bromo-2-methylphenyl)-3-[1-(1-methoxymethyl)propyl]-5-methyl-3H-1,2,3-triazolo[4,5-d]pyrimidin-7-amine]: the melting point lay in the range of 144.5 to 146 °C.
To `CCC(CC)n1nnc2c(Nc3ccc(C(C)=O)cc3Br)nc(C)nc21` [Example 26, N-(4-acetyl-2-bromophenyl)-3-[1-ethylpropyl]-5-methyl-3H-1,2,3-triazolo[4,5-d]pyrimidin-7-amine] belongs 153 to 154 °C; to `CCCC(CCC)n1nnc2c(Nc3c(C)cc(C)cc3Br)nc(C)nc21` [Example 21, N-(2-bromo-4,6-dimethylphenyl)-5-methyl-3-[1-propylbutyl]-3H-1,2,3-triazolo[4,5-d]pyrimidin-7-amine], 141 to 142 °C; to `CCCC(CCC)n1nnc2c(Nc3c(Br)cc(OC)cc3OC)nc(C)cc21` [Example 224, N-(2-bromo-4,6-dimethoxyphenyl)-6-methyl-1-(1-propylbutyl)-1H-1,2,3-triazolo[4,5-c]pyridin-4-amine], 140 to 141 °C.
To `CCCCC(CCCC)n1nnc2c(Nc3ccc(C(C)C)cc3Br)nc(C)nc21` [Example 16, N-[2-bromo-4-(1-methylethyl)phenyl]-3-[1-butylpentyl]-5-methyl-3H-1,2,3-triazolo[4,5-d]pyrimidin-7-amine] belongs 132 to 133 °C; to `CCC(CC)n1nnc2c(Nc3ccc(C(C)C)cc3Br)nc(C)nc21` [Example 19, N-[2-bromo-4-(1-methylethyl)phenyl]-3-[1-ethylpropyl]-5-methyl-3H-1,2,3-triazolo[4,5-d]pyrimidin-7-amine], 171 to 172 °C; to `CCC(CC)n1nnc2c(Nc3ccc(C(C)C)cc3Br)nc(C)cc21` [Example 221, N-[2-bromo-4-(1-methylethyl)phenyl]-1-(1-ethylpropyl)-6-methyl-1H-1,2,3-triazolo[4,5-c]pyridin-4-amine], 144 to 145 °C.
In the case of `CCC(CC)n1nnc2c(Nc3c(C)cc(C)cc3C)nc(C)nc21` [Example 34, 3-[1-(1-ethyl)propyl]-5-methyl-N-(2,4,6-trimethylphenyl)-3H-1,2,3-triazolo[4,5-d]pyrimidin-7-amine], the melting point is 160 to 162 °C.
To `CCCCC(CC)n1nnc2c(Nc3ccc(C(C)C)cc3Br)nc(C)cc21` (racemic) [Example 226, (+/−)-N-[2-bromo-4-(1-methylethyl)phenyl]-1-(1-ethylpentyl)-6-methyl-1H-1,2,3-triazolo[4,5-c]pyridin-4-amine] belongs 73 to 74 °C; to `CCCC(CCC)n1nnc2c(Nc3c(Cl)cc(OC)cc3OC)nc(C)cc21` [Example 225, N-(2-chloro-4,6-dimethoxyphenyl)-6-methyl-1-(1-propylbutyl)-1H-1,2,3-triazolo[4,5-c]pyridin-4-amine], 157 to 158 °C; to `CCCC(CC)n1nnc2c(Nc3c(C)cc(C)cc3C)nc(C)nc21` (racemic) [Example 35, (+/−)-3-[1-(1-ethyl)butyl]-5-methyl-N-(2,4,6-trimethylphenyl)-3H-1,2,3-triazolo[4,5-d]pyrimidin-7-amine], 170.5 to 172 °C.
`CCC(COC)n1nnc2c(Nc3c(Cl)cc(OC)cc3OC)nc(C)nc21` (racemic) [Example 31, (+/−)-N-(2-chloro-4,6-dimethoxyphenyl)-3-[1-(1-methoxymethyl)propyl]-5-methyl-3H-1,2,3-triazolo[4,5-d]pyrimidin-7-amine]: the melting point was 149 to 150 °C.
On to `CCCC(CCC)n1nnc2c(Nc3c(C)cc(C)cc3C)nc(C)nc21` [Example 37, 5-methyl-3-[1-(1-propyl)butyl]-N-(2,4,6-trimethylphenyl)-3H-1,2,3-triazolo[4,5-d]pyrimidin-7-amine], for which the melting point fell in the range of 143 to 144.5 °C.
`CCC(COC)n1nnc2c(Nc3ccc(C(C)C)cc3Br)nc(C)nc21` (racemic) [Example 9, (+/−)-N-[2-bromo-4-(1-methylethyl)phenyl]-3-[1-(1-methoxymethyl)propyl]-5-methyl-3H-1,2,3-triazolo[4,5-d]pyrimidin-7-amine] came in with a melting point of 115 to 116 °C.
Regarding `CCCC(CCC)n1nnc2c(Nc3ccc(C(C)C)cc3Br)nc(C)nc21` [Example 15, N-[2-bromo-4-(1-methylethyl)phenyl]-3-[1-propylbutyl]-5-methyl-3H-1,2,3-triazolo[4,5-d]pyrimidin-7-amine], the melting point lay within 69 to 70 °C.
With `COC[C@H](Cc1ccccc1)n1nnc2c(Nc3ccc(C(C)C)cc3Br)nc(C)nc21` [Example 11, (S)-N-[2-bromo-4-(1-methylethyl)phenyl]-3-[1-(1-methoxymethyl)-2-phenylethyl]-5-methyl-3H-1,2,3-triazolo[4,5-d]pyrimidin-7-amine], the melting point lay in the range of 67 to 69 °C.
Molecule `CCCC(CC)n1nnc2c(Nc3ccc(C(C)C)cc3Br)nc(C)nc21` (racemic) [Example 17, (+/−)-N-[2-bromo-4-(1-methylethyl)phenyl]-3-[1-ethylbutyl]-5-methyl-3H-1,2,3-triazolo[4,5-d]pyrimidin-7-amine] gave a melting point of 154 to 155 °C.
`CCC(COC)n1nnc2c(Nc3c(C)cc(C)cc3C)nc(C)nc21` (racemic) [Example 32, (+/−)-3-[1-(1-methoxymethyl)propyl]-5-methyl-N-(2,4,6-trimethylphenyl)-3H-1,2,3-triazolo[4,5-d]pyrimidin-7-amine] returned a melting point of 144.5 to 147 °C.
Regarding `CCCC(CCC)n1nnc2c(Nc3ccc(Br)cc3C)nc(C)nc21` [Example 40, N-(2-Methyl-4-bromophenyl)-3-[1-(1-propyl)butyl]-5-methyl-3H-1,2,3-triazolo[4,5-d]pyrimidin-7-amine], the melting point is 126.5 to 128 °C.
The molecule `CCCCC(CC)n1nnc2c(Nc3ccc(C(C)C)cc3Br)nc(C)nc21` (racemic) [Example 13, (+/−)-N-[2-bromo-4-(1-methylethyl)phenyl]-3-[1-ethylpentyl]-5-methyl-3H-1,2,3-triazolo[4,5-d]pyrimidin-7-amine] came in with a melting point of 137 to 138 °C.
With `CCCCC(CC)n1nnc2c(Nc3c(C)cc(C)cc3C)nc(C)nc21` (racemic) [Example 36, (+/−)-3-[1-(1-ethyl)pentyl]-5-methyl-N-(2,4,6-trimethylphenyl)-3H-1,2,3-triazolo[4,5-d]pyrimidine-7-amine], the melting point was 129 to 130.5 °C.
As to `COCCn1nnc2c(Nc3ccc(C(C)C)cc3Br)nc(C)nc21` [Example 6, N-[2-bromo-4-(1-methylethyl)phenyl]-3-(2-methoxyethyl)-5-methyl-3H-1,2,3-triazolo[4,5-d]pyrimidin-7-amine], the melting point is 94 to 95 °C.
Molecule `CCC(COC)n1nnc2c(Nc3c(Br)cc(OC)cc3OC)nc(C)nc21` (racemic) [Example 30, (+/−)-N-(2-bromo-4,6-dimethoxyphenyl)-3-[1-(1-methoxymethyl)propyl]-5-methyl-3H-1,2,3-triazolo[4,5-d]pyrimidin-7-amine] returned a melting point of 154 to 155 °C.
